Measurements taken from patent US20130131321A1, “LIGANDS FOR ANTIBODY AND Fc-FUSION PROTEIN PURIFICATION BY AFFINITY CHROMATOGRAPHY” (GRAFFINITY PHARMACEUTICALS GMBH, priority 2010, published 2013).

What was measured:
Bevacizumab [1] = target: T1, Bevacizumab (Homo sapiens, UniProt P01857); experiment: Microtiter plate chromatography of resins, Bevacizumab whole IgG (bound, yield, selectivity); type: binding, humanized
T1 construct: fused on or other part: humanised anti-VEGF-A VH domain N-terminal of the gamma-1 constant region (engineered, no UniProt entry)

Tocilizumab = experiment: Microtiter plate chromatography of resins, Tocilizumab (bound, yield); type: binding, humanized
host cell proteins (HCP) [2] = experiment: Microtiter plate chromatography of resins, host cell proteins (bound); type: binding, CHO; conditions: host cell proteins
Bevacizumab Fab fragment = experiment: Microtiter plate chromatography of resins, Bevacizumab Fab fragment (bound); type: binding, humanized
Experimental: (§1) Resins were assessed in packed mode by microtiter plate chromatography. For each column, approximately 30 μl of resin were transferred to a 384-well filter plate and sealed with appropriate top frits.
(§2) Columns were equilibrated with 6.7 column volumes (cv) of phosphate buffered saline (0.15 M NaCl, 20 mM sodium phosphate, pH 7.3; PBS) prior to injection. Either 3.3 cv of whole IgGs dissolved at 0.75 mg ml^−1, Fab or Fc fragments dissolved at 0.25 mg ml^−1 (all three in PBS) or host cell proteins (HCP) were injected onto columns. Antibody fragments of Bevacizumab (Fab and Fc) were prepared by cleavage of whole IgG with papain protease (3) according to the protocol of the manufacturer. […] Volumes transferred were spun through columns at 50 g for 1-2 min. During injection of samples, acceleration was reduced to 10 g and centrifugation time increased to 5-10 min. Effluent fractions were collected in 384-well plates and concentrations of protein analyzed by Bradford assay. Protein masses mi, mft and me (see below) were calculated as the product of fraction volume and measured protein concentration.
(§3) The fraction of ‘bound’ protein was calculated as the difference between the total mass of protein injected mi and the mass of protein detected in the flowthrough mft, divided by the total mass of protein injected.
(§4) the fraction of ‘bound’ protein and the ‘yield’ of protein were calculated for each resin based on data for whole IgG-antibodies. In the case of Bevacizumab fragments and host cell proteins, only the fraction of ‘bound’ protein is given. Selectivity of resins was calculated from data for Bevacizumab Whole IgG and host cell proteins. Due to limited experimental precision, selectivity was truncated beyond values of 10.

[3] = test system: human poly-IgG (h-poly-IgG); experiment: Microtiter plate chromatography of resins, human poly-IgG (bound, yield); type: binding
Bevacizumab [4] = target: T1, Bevacizumab; experiment: Langmuir isotherms by batch adsorption; type: binding, humanized; conditions: Bevacizumab in PBS pH 7.3, 25° C., at least 3 h
Experimental: Experiments were performed with Bevacizumab as antibody. Parameters of Langmuir isotherms for purified antibody were determined by batch adsorption experiments in 96-well microtiter plates. In each well, 10 μl of sorbent slurry (50% v/v) were mixed with 100 μl of protein solution. Initial concentrations varied from 0.05-5 mg ml^−1 in phosphate-buffered saline (0.15 M NaCl, 20 mM phosphate buffer, pH 7.3; PBS). Reactions were agitated vigorously at 25° C. for at least 3 h. Afterwards, antibody concentration in the supernatents were measured by Bradford assay.
Parameters of Langmuir isotherms, i.e. dissociation constants Kd and maximum capacities qm, were determined from the measured concentrations in supernatants. Parameters were estimated by numerical fitting of the model equation derived by Chase (4).

Bevacizumab Fc fragment = experiment: Microtiter plate chromatography of resins, Bevacizumab Fc fragment (bound); type: binding, humanized
Experimental: as §1, §2, §3, §4

Palivizumab = experiment: Microtiter plate chromatography of resins, Palivizumab (bound, yield); type: binding, humanized
host cell proteins (HCP) [5] = experiment: Microtiter plate chromatography of resins, host cell proteins (bound); type: binding, CHO; conditions: estimate predicted on the basis of close analogs L49 and L50
[6] = estimate predicted on the basis of close analogs L49 and L50

Row | SMILES | Bevacizumab IgG Bound (%) (Bevacizumab [1]; fraction of whole IgG Bevacizumab bound to resin) | Bevacizumab IgG Yield (%) (Bevacizumab [1]; mass of whole IgG Bevacizumab eluted / mass injected) | Tocilizumab Bound (%) (Tocilizumab) | Tocilizumab Yield (%) (Tocilizumab) | HCP Bound (%) (host cell proteins (HCP) [2]) | Bevacizumab Fab Bound (%) (Bevacizumab Fab fragment; Bevacizumab Fab fragment) | binding of Bevacizumab Fab-fragment (Bevacizumab Fab fragment; Fab 0.25 mg ml^-1 in PBS) | h-poly-IgG Bound (%) [3] [%] | h-poly-IgG Yield (%) [3] [%] | qm (maximum capacity, Langmuir isotherm) (Bevacizumab [4]) [mg per ml resin] | Bevacizumab Fc Bound (%) (Bevacizumab Fc fragment; Bevacizumab Fc fragment) | binding of Bevacizumab Fc-fragment (Bevacizumab Fc fragment; Fc 0.25 mg ml^-1 in PBS) | Palivizumab Bound (%) (Palivizumab) | Palivizumab Yield (%) (Palivizumab) | Bevacizumab IgG Bound (%) (Bevacizumab [1]; [6]) | Bevacizumab IgG Yield (%) (Bevacizumab [1]; [6]) | HCP Bound (%) (host cell proteins (HCP) [5])
1 | COc1ccc(NC(=O)c2nn(C)c3ccccc23)cc1C(=O)NCCCN [Ligand L27, 2-Methoxy-5-(1-methylindazol-3-yl)carboxamidobenzoic acid N-(3-aminopropyl)amide] | 100 | 94 | 100 | 104 | 35 | 6 | not the Fab-fragment | 98 | 89 | 33 | 96 | bound the Fc-fragment | 100 | 94 |  |  | 
2 | COc1ccc(NC(=O)c2cn3ccsc3n2)cc1C(=O)NCCOCC(=O)NCCCC[C@H](NC(=O)COCCNC(=O)c1cc(NC(=O)c2cn3ccsc3n2)ccc1OC)C(=O)NCCCN [Ligand L53, (S)-2,6-Bis{5-[5-(Imidazo[2,1-b]thiazol-6-ylcarboxamido)-2-methoxyphenylcarboxamido]-3-oxapentanoylamido}hexanoic acid (3-amino-1-propyl)amide] |  |  | >90 | >90 |  |  |  |  |  |  |  |  |  |  | >95 | >85 | <20
